{"source": "patent US12617767B2", "about": "“Crystalline forms of somatostatin modulators” (Crinetics Pharmaceuticals, Inc., priority 2019, dated 2026)", "type_in_all_cases": "physicochemical", "key": {"[1]": {"experiment": "Equilibrium solubility in simulated fluids and water at 37° C.", "details": "for pH (24 hr): dimesylate; for solubility at 24 h: above calibration range", "description": "The solubility Compound A⋅2MSA, Patterns A, B and I, was measured in water, fasted state simulated gastric fluid (FaSSGF) and fasted state simulated intestinal fluid (FaSSIF) at 37° C. by slurrying in the respective media for 24 hours. 1.5 mL of the fluid was stirred at 37° C. About 5 mg of the specified solid was added to FaSSIF and a thin slurry was immediately formed. As a test, approximately 80 and 60 mg of Pattern A was added to 1.5 mL of water and FaSSGF, respectively without formation of a slurry. Therefore, about 10 mg of the desired Pattern was added to water and FaSSGF solutions. The samples were allowed to stir at 37° C. for 24 hrs. The stir bars were removed from the FaSSIF vials and the solids allowed to settle for 0.5 hours at 37° C. The supernatant/solutions were syringe filtered and recovered for analysis by HPLC as well as for pH measurement."}, "[2]": {"experiment": "Kinetic solubility studies in FaSSIF and FeSSIF", "details": "37° C.; for solubility thermodynamic at 1 day: thermodynamic from solid, read-out: Concentration", "description": "The solubility of the dimesylate (Pattern B) and mono-HCl salts of Compound A was determined in FaSSIF (pH 6.5) at 37° C. after a slurry time of 5, 20 and 40 minutes. FaSSIF was warmed to 37° C. and added to a vial of ca. 9 mg of the salt to mark t=0. The mixture was kept stirring at 37° C. and a sample drawn with a syringe at t+5, 20 and 40 minutes. The samples were syringe filtered and the filtrate was diluted 2× to ensure no precipitation while waiting for HPLC analysis. The pH of the solution collected at 40 minutes was measured. The slurry was sampled again the following day and the supernatant from syringe filtration was analyzed directly by HPLC without dilution. The same experiment was run with FeSSIF (pH 5.0)."}, "[3]": {"experiment": "Dynamic Vapor Sorption (DVS)", "description": "Dynamic Vapor Sorption (DVS) was done using a DVS Intrinsic 1. The sample is loaded into a sample pan and suspended from a microbalance. A typical sample mass for DVS measurement is 25 mg. Nitrogen gas bubbled through distilled water provides the desired relative humidity.\nA typical measurement comprises the steps: • 1—Equilibrate at 50% RH • 2-50% to 2%. (50%, 40%, 30%, 20%, 10% and 2%) • a. Hold minimum of 5 mins and maximum of 240 minutes at each humidity. The pass criteria is less than 0.002% change • 3-2% to 95% (2%, 10%, 20%, 30%, 40%, 50%, 60%, 70%, 80%, 90%, 95%) • a. Hold minimum of 5 mins and maximum of 240 minutes at each humidity. The pass criteria is less than 0.002% change • 4-95% to 2% (95%, 80%, 70%, 60%, 50%, 40%, 30%, 20%, 10%, 2%) • a. Hold minimum of 5 mins and maximum of 240 minutes at each humidity. The pass criteria is less than 0.002% change • 5-2% to 50% (2%, 10%, 20%, 30%, 40%, 50%) • a. Hold minimum of 5 mins and maximum of 240 minutes at each humidity. The pass criteria is less than 0.002% change Dynamic Vapor Sorption Isotherm Plots of Solid Forms of Compound A⋅2MSA"}, "[4]": {"experiment": "Stability of XRPD pattern on drying", "description": "Short term slurries were carried out at two temperatures in 14 solvents. About 25 mg solid was added to a 2 mL vial followed by 0.70 mL of solvent. If all solids dissolved, more solid was added until a slurry was formed within reason. Slurries were stirred at constant temperature for four days (ambient temperature, 21-23° C.; or high temperature, 50° C.). After stirring for four days, solids were allowed to settle and were then recovered for XRPD analysis. XRPD analysis was performed on the wet cake, and if a new pattern was observed, the sample was dried in a vacuum oven at 50° C. for a minimum of 4 hours, then the dried sample was analyzed by XRPD.\nStability on Drying: A sample of Pattern B was prepared on an XRPD sample holder and analysed by XRPD to create a baseline. The disk was then left in a vacuum oven at 50° C. under static vacuum for 3 days. On the third day, the sample was removed from the oven and the “dry” pattern was recorded immediately.\n(§1) Compound A⋅2MSA (Pattern A) was slurried in EtOH overnight at room temperature (ca. 16 hours). […] The bulk was dried in a vacuum oven at 50° C. under dynamic vacuum for 4.5 hours. The dried solids were removed from the oven and a “dry” XRPD analysis was collected."}, "[5]": {"experiment": "Storage at ambient conditions (XRPD)", "details": "21-22° C., 10-40% RH, a week", "description": "Characterization after storage under ambient conditions: Pattern B was left at ambient conditions (21-22° C., 10-40% RH) for a week then characterized by)(RFD, TGA/DSC, and water content measured by Karl-Fischer titration. […] The water content was confirmed by KF titration which yielded a value of 4.20 wt. %.\nCompound A⋅2MSA (Pattern A, 0.2622 g) was added to a 20 mL vial with a stir bar. Fifteen volumes (3.93 mL) of EtOH was added and the slurry was stirred overnight (˜20 hours). The slurry was sampled to confirm the correct pattern was generated, then the solids were collected by filtration. The resultant yellow solid was dried in a vacuum oven at 50° C. under dynamic vacuum for 2 hours, then under static vacuum overnight (˜16 hours) to yield 0.2015 g (77% yield). The in-situ sample drawn was dried for 3 hours then the solid was used for characterization by solution ^1H-NMR spectroscopy and simultaneous TGA/DSC. The bulk was dried overnight and used for stand-alone DSC, and thermal treatment.\nas §1\nCompound A⋅2MSA (Pattern A, 0.2659 g) was added to a 20 mL vial with a stir bar. Twenty-five volumes (6.65 mL) of ACN was added and the slurry was stirred overnight (˜20 hours). The slurry was sampled to confirm the correct pattern was generated, then the solids were collected by filtration. The resultant yellow solid was dried in a vacuum oven at 50° C. under dynamic vacuum for 2 hours, then under static vacuum overnight (˜16 hours) to yield 0.2255 g (85% yield). The sample drawn was dried for 3 hours then the solid was used for characterization by solution ^1H-NMR spectroscopy and simultaneous TGA/DSC. The bulk was dried overnight and used for stand-alone DSC."}}, "note": "Like-named read-outs stand apart in the source and are kept apart here."}
{"smiles": "CS(=O)(=O)O.CS(=O)(=O)O.N#Cc1cccc(-c2ccc3ncc(-c4cc(F)cc(F)c4)c(N4CCC(N)CC4)c3c2)c1O", "note": "[Pattern B, 3-(4-(4-aminopiperidin-1-yl)-3-(3,5-difluorophenyl)quinolin-6-yl)-2-hydroxybenzonitrile dimesylate]", "values": [{"measurement": "comments", "setting": "[1]; FaSSGF (pH 1.70), 24 hrs", "result": "dissolved"}, {"measurement": "pH (24 hr)", "setting": "[1]; FaSSGF (pH 1.70)", "result": 1.80}, {"measurement": "solubility at 24 h", "setting": "[1]; FaSSGF, 37 °C, pH 1.7, fassgf or other biorelevant, thermodynamic from solid, FaSSGF (pH 1.70), 24 hrs, mg of Compound A (free base), read-out: Concentration", "result": "> 6570", "unit": "µg/mL"}, {"measurement": "comments", "setting": "[1]; FaSSIF (pH 6.48), 24 hrs", "result": "disproportionated"}, {"measurement": "pH (24 hr)", "setting": "[1]; FaSSIF (pH 6.48)", "result": 6.02}, {"measurement": "solubility thermodynamic at 24 h", "setting": "[1]; FaSSIF, 37 °C, pH 6.48, fassif, thermodynamic from solid, FaSSIF (pH 6.48), 24 hrs, mg of Compound A (free base), read-out: Concentration", "result": 11, "unit": "µg/mL"}, {"measurement": "solubility at 24 h", "setting": "[1]; water, 37 °C, water, thermodynamic from solid, water, 24 hrs, mg of Compound A (free base), read-out: Concentration", "result": "> 6250", "unit": "µg/mL"}, {"measurement": "comments", "setting": "[1]; water, 24 hrs", "result": "dissolved"}, {"measurement": "pH (24 hr)", "setting": "[1]; water", "result": 3.08}, {"measurement": "pH of the solution collected at 40 minutes", "setting": "[2]; FaSSIF (pH 6.5)", "result": 6.22}, {"measurement": "Concentration", "setting": "[2]; FaSSIF (pH 6.5), 5 min", "result": 13, "unit": "µg/mL"}, {"measurement": "Concentration", "setting": "[2]; FaSSIF (pH 6.5), 20 min", "result": 15, "unit": "µg/mL"}, {"measurement": "Concentration", "setting": "[2]; FaSSIF (pH 6.5), 40 min", "result": 13, "unit": "µg/mL"}, {"measurement": "pH of the solution collected at 40 minutes", "setting": "[2]; FeSSIF (pH 5.0)", "result": 4.94}, {"measurement": "Concentration", "setting": "[2]; FeSSIF (pH 5.0), 5 min", "result": 559, "unit": "µg/mL"}, {"measurement": "Concentration", "setting": "[2]; FeSSIF (pH 5.0), 20 min", "result": 565, "unit": "µg/mL"}, {"measurement": "Concentration", "setting": "[2]; FeSSIF (pH 5.0), 40 min", "result": 559, "unit": "µg/mL"}, {"measurement": "solubility thermodynamic at 1 day", "setting": "[2]; FaSSIF (pH 6.5)", "result": 8, "unit": "µg/mL"}, {"measurement": "solubility thermodynamic at 1 day", "setting": "[2]; FeSSIF (pH 5.0)", "result": 502, "unit": "µg/mL"}, {"measurement": "XRPD form after the DVS experiment", "setting": "[3]; 2-95% RH, dimesylate", "result": "no change in form"}, {"measurement": "reversible water uptake (DVS)", "setting": "[3]; between 2% and 95% Relative Humidity (RH), dimesylate", "result": 3.2, "unit": "% w/w"}, {"measurement": "total mass difference (DVS)", "setting": "[3]; over the 2-95% RH range", "result": 3.2, "unit": "wt. %"}, {"measurement": "mass change (DVS)", "setting": "[3]; range of 10-80% RH", "result": 1.3, "unit": "wt. %"}, {"measurement": "XRPD pattern upon drying", "setting": "[4]; solids from short term slurries, vacuum oven at 50° C., minimum of 4 hours, dimesylate", "result": "stable upon drying"}, {"measurement": "XRPD pattern after drying", "setting": "[4]; vacuum oven at 50° C. under static vacuum for 3 days", "result": "matched Pattern B"}, {"measurement": "XRPD pattern after storage at ambient conditions", "setting": "[5]", "result": "identical to Pattern B"}]}
